Data reported in patent publication US11254665B2, “Crystalline sulfamide compound” (CHIA TAI TIANQING PHARMACEUTICAL GROUP CO., LTD., priority 2017, dated 2022).
Values belong to the molecule of their own block, whether it stands above or below them.

Tests used:
[1] = target: IDH1(R132C) (Homo sapiens, UniProt O75874, R132C); assay: Enzyme assay (NADPH/diaphorase/resazurin), IDH1 mutant inhibition; format: biochemical; conditions: 16 h pre-incubation with enzyme and NADPH at 23° C.
From the text: (§1) Resazurin is a traditional redox dye, and after a redox reaction, it can be reduced from a blue resazurin without fluorescence to a pink fluorescent substance, resorufin, which can be measured and quantified with relative fluorescence unit (RFU) of fluorophotometer (Ex=530-570 nm, Em=590-620 nm). At present, resazurin is widely used for determining the viability of bacteria, cells, etc., and the enzyme activity detection of oxidoreductase. We detected the decrease of cofactor NADPH to determine the inhibitory activity of a compound against IDH1m and detected the generation of cofactor NADPH to determine the inhibitory activity of a compound against IDH WT. […] The amount of the remaining cofactor NADPH after a specific reaction time was quantified via an easily detectable fluorophore.
(§2) The specific operation was as follows: 2.5 μl of the compound diluted in a 3-fold gradient was added to a 384-well plate, followed by adding 5 μl of the reaction buffer (20 mM Tris-HCl, pH 7.5; 150 mM NaCl; 10 mM MgCl2; 0.4 mg/mL BSA (Bovine Serum Albumin) and 2 mM DTT (dithiothreitol)) containing 40 nM IDH1 (R132H/R132C) and 20 μM NADPH. […] After incubating at 23° C. for 10 minutes, fluorescence values were determined through Flexstation 3 at Ex535/Em595. […]

[2] = target: IDH1(R132H) (Homo sapiens, UniProt O75874, R132H); assay: as above; format: biochemical; conditions: 16 h pre-incubation with enzyme and NADPH at 23° C.
From the text: as §1, §2

[3] = Pharmacokinetic experiments, single peroral administration; format: in vivo; conditions: rat; male SD rats, oral 5 mg/kg, suspension in 0.5% MC, 0.2% Tween80, plasma
Protocol: Male SD rats were from Beijing Vital River Laboratory Animal Technology Co., Ltd., and divided into groups (3 rats per group). The rats were intragastrically administered with the test sample suspension (5 mg/kg) via a single peroral administration, respectively. The animals were fasted overnight before this study. The fasting time period was from 10 hours before administration to 4 hours after administration. Blood samples were taken at 0.25, 0.5, 1, 2, 4, 6, 8 and 24 hours after administration. After the rats were anesthetized with isoflurane using an anesthesia machine for small animal, and then 0.3 mL whole blood samples were taken from the fundus venous plexus. The blood samples were placed in heparin anticoagulant tubes, and centrifuged for 5 min at 4° C. and 4000 rpm. The plasma was transferred to centrifuge tubes, and stored at −80° C. till analysis. The samples in plasma were extracted through protein precipitation. The liquid extract was analyzed by LC-MS/MS, wherein HPLC conditions were as follows: flow rate 0.4 mL/min; mobile phase A: water/formic acid (99.9/0.1, v/v); mobile phase B: acetonitrile/formic acid (99.9/0.1, v/v); injection volume: 5 μL; column temperature: RT; autosampler temperature: RT; run time: 2.5 min.

[4] = Stability influencing factors: high temperature test; format: physicochemical
Protocol: (§3) In accordance with “Stability Testing of New Drug Substances and Products” in ICH Q1A and “Guidelines for the Stability Testing of Drug Substances and Preparations” in Pharmacopoeia of China, fourth part, 2015 edition, 9001, the stability influencing factors were tested for the crystal of the monohydrate formula II, including high temperature, high humidity and light tests.
(§4) In accordance with “Stability Testing of New Drug Substances and Products” in ICH Q1A and “Guidelines for the Stability Testing of Drug Substances and Preparations” in Pharmacopoeia of China, fourth part, 2015 edition, 9001, the stability influencing factors were tested for the crystal of the compound of formula I, including high temperature and high humidity tests.
(§5) In accordance with “Stability Testing of New Drug Substances and Products” in ICH Q1A and “Guidelines for the Stability Testing of Drug Substances and Preparations” in Pharmacopoeia of China, fourth part, 2015 edition, 9001, the stability influencing factors were tested for the amorphous form of the compound of formula I, including high temperature and high humidity tests.

[5] = Stability influencing factors: high humidity test; format: physicochemical
Protocol: as §3, §4, §5

[6] = Stability influencing factors: light test; format: physicochemical
Protocol: as §3

IDH1(R132H), sequence (O75874 whole entry R132H): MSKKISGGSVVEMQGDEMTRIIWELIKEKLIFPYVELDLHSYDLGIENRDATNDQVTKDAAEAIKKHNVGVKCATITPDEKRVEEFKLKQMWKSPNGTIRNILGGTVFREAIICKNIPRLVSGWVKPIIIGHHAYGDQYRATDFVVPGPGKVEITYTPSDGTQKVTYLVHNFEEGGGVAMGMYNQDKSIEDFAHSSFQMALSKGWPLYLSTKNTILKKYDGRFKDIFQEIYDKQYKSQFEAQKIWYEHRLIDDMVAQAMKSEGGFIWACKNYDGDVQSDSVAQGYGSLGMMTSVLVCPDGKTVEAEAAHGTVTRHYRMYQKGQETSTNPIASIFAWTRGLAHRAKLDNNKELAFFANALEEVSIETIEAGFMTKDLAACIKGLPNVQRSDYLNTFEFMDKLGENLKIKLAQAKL
IDH1(R132C), sequence (O75874 whole entry R132C): as the sequence (O75874 whole entry R132H) above, with H132C counted along it

IC50 [1]: < 0.02 µM
IC50 [2]: < 0.02 µM
Tmax [3]: 4 h
Compound: N#Cc1ccnc(N2[C@H](C(=O)N(c3cccc(F)c3)[C@H](C(=O)NC3CC(F)(F)C3)c3ccccc3Cl)CCS2(=O)=O)c1 [Compound of formula I, (S)—N—((S)-1-(2-chlorophenyl)-2-((3,3-difluorocyclobutyl)amino)-2-oxoethyl)-2-(4-cyanopyridin-2-yl)-N-(3-fluorophenyl)-isothiazolidine-3-carboxamide 1,1-dioxide]

Appearance ([4]; 0 day): White
Total impurities (%) ([4]; 0 day): 0.28%
Water (%) ([4]; 0 day): 1.4%
Appearance ([4]; 40° C., 5 day): White
Total impurities (%) ([4]; 40° C., 5 day): 0.25%
Water (%) ([4]; 40° C., 5 day): 1.1%
Appearance ([4]; 40° C., 10 day): White
Total impurities (%) ([4]; 40° C., 10 day): 0.28%
Water (%) ([4]; 40° C., 10 day): 1.0%
Appearance ([4]; 40° C., 30 day): White
Total impurities (%) ([4]; 40° C., 30 day): 0.26%
Water (%) ([4]; 40° C., 30 day): 0.8%
Appearance ([4]; 60° C., 5 day): White
Total impurities (%) ([4]; 60° C., 5 day): 0.31%
Water (%) ([4]; 60° C., 5 day): 0.8%
Appearance ([4]; 60° C., 10 day): White
Total impurities (%) ([4]; 60° C., 10 day): 0.27%
Water (%) ([4]; 60° C., 10 day): 0.6%
Appearance ([4]; 60° C., 30 day): White
Total impurities (%) ([4]; 60° C., 30 day): 0.28%
Water (%) ([4]; 60° C., 30 day): 0.5%
Appearance ([5]; 0 day): White
Total impurities (%) ([5]; 0 day): 0.28%
Water (%) ([5]; 0 day): 1.4%
Appearance ([5]; 75% RH, 5 day): White
Total impurities (%) ([5]; 75% RH, 5 day): 0.30%
Water (%) ([5]; 75% RH, 5 day): 1.7%
Appearance ([5]; 75% RH, 10 day): White
Total impurities (%) ([5]; 75% RH, 10 day): 0.30%
Water (%) ([5]; 75% RH, 10 day): 1.8%
Appearance ([5]; 75% RH, 30 day): White
Total impurities (%) ([5]; 75% RH, 30 day): 0.27%
Water (%) ([5]; 75% RH, 30 day): 1.8%
Appearance ([5]; 92.5% RH, 5 day): White
Total impurities (%) ([5]; 92.5% RH, 5 day): 0.30%
Water (%) ([5]; 92.5% RH, 5 day): 2.1%
Appearance ([5]; 92.5% RH, 10 day): White
Total impurities (%) ([5]; 92.5% RH, 10 day): 0.29%
Water (%) ([5]; 92.5% RH, 10 day): 2.3%
Appearance ([5]; 92.5% RH, 30 day): White
Total impurities (%) ([5]; 92.5% RH, 30 day): 0.26%
Water (%) ([5]; 92.5% RH, 30 day): 2.4%
Compound: N#Cc1ccnc(N2[C@H](C(=O)N(c3cccc(F)c3)[C@H](C(=O)NC3CC(F)(F)C3)c3ccccc3Cl)CCS2(=O)=O)c1 [amorphous form of the compound of formula I]

Appearance ([4]; 0 day): White
Total impurities (%) ([4]; 0 day): 0.39%
Water (%) ([4]; 0 day): 0.45%
Appearance ([4]; 40° C., 5 day): White
Total impurities (%) ([4]; 40° C., 5 day): 0.42%
Water (%) ([4]; 40° C., 5 day): 0.85%
Appearance ([4]; 40° C., 12 day): White
Total impurities (%) ([4]; 40° C., 12 day): 0.37%
Water (%) ([4]; 40° C., 12 day): 0.85%
Appearance ([4]; 60° C., 5 day): White
Total impurities (%) ([4]; 60° C., 5 day): 0.63%
Water (%) ([4]; 60° C., 5 day): 0.59%
Appearance ([4]; 60° C., 12 day): White
Total impurities (%) ([4]; 60° C., 12 day): 0.54%
Water (%) ([4]; 60° C., 12 day): 0.73%
Appearance ([5]; 0 day): White
Total impurities (%) ([5]; 0 day): 0.39%
Water (%) ([5]; 0 day): 0.45%
Appearance ([5]; 75% RH, 5 day): White
Total impurities (%) ([5]; 75% RH, 5 day): 0.43%
Water (%) ([5]; 75% RH, 5 day): 0.94%
Appearance ([5]; 75% RH, 12 day): White
Total impurities (%) ([5]; 75% RH, 12 day): 0.37%
Water (%) ([5]; 75% RH, 12 day): 1.16%
Appearance ([5]; 92.5% RH, 5 day): White
Total impurities (%) ([5]; 92.5% RH, 5 day): 0.47%
Water (%) ([5]; 92.5% RH, 5 day): 1.58%
Appearance ([5]; 92.5% RH, 12 day): White
Total impurities (%) ([5]; 92.5% RH, 12 day): 0.37%
Water (%) ([5]; 92.5% RH, 12 day): 1.75%
Compound: N#Cc1ccnc(N2[C@H](C(=O)N(c3cccc(F)c3)[C@H](C(=O)NC3CC(F)(F)C3)c3ccccc3Cl)CCS2(=O)=O)c1 [crystal of the compound of formula I]

Appearance ([4]; 0 day): White
Enantiomers (%) ([4]; 0 day): 0.01%
Total impurities (%) ([4]; 0 day): 0.38%
Total of diastereoisomers (%) ([4]; 0 day): 0.05%
Water (%) ([4]; 0 day): 3.10%
Appearance ([4]; 40° C., 5 day): White
Enantiomers (%) ([4]; 40° C., 5 day): 0.01%
Total impurities (%) ([4]; 40° C., 5 day): 0.45%
Total of diastereoisomers (%) ([4]; 40° C., 5 day): 0.05%
Water (%) ([4]; 40° C., 5 day): 2.69%
Appearance ([4]; 40° C., 10 day): White
Enantiomers (%) ([4]; 40° C., 10 day): 0.01%
Total impurities (%) ([4]; 40° C., 10 day): 0.47%
Total of diastereoisomers (%) ([4]; 40° C., 10 day): 0.05%
Water (%) ([4]; 40° C., 10 day): 2.45%
Appearance ([4]; 60° C., 5 day): White
Total impurities (%) ([4]; 60° C., 5 day): 0.48%
Total of diastereoisomers (%) ([4]; 60° C., 5 day): 0.05%
Water (%) ([4]; 60° C., 5 day): 2.67%
Appearance ([4]; 60° C., 10 day): White
Enantiomers (%) ([4]; 60° C., 10 day): 0.01%
Total impurities (%) ([4]; 60° C., 10 day): 0.47%
Total of diastereoisomers (%) ([4]; 60° C., 10 day): 0.05%
Water (%) ([4]; 60° C., 10 day): 2.51%
Appearance ([5]; 0 day): White
Enantiomers (%) ([5]; 0 day): 0.01%
Total impurities (%) ([5]; 0 day): 0.38%
Total of diastereoisomers (%) ([5]; 0 day): 0.05%
Water (%) ([5]; 0 day): 3.10%
Appearance ([5]; 75% RH, 5 day): White
Enantiomers (%) ([5]; 75% RH, 5 day): 0.01%
Total impurities (%) ([5]; 75% RH, 5 day): 0.44%
Total of diastereoisomers (%) ([5]; 75% RH, 5 day): 0.05%
Water (%) ([5]; 75% RH, 5 day): 2.69%
Appearance ([5]; 75% RH, 10 day): White
Enantiomers (%) ([5]; 75% RH, 10 day): 0.01%
Total impurities (%) ([5]; 75% RH, 10 day): 0.50%
Total of diastereoisomers (%) ([5]; 75% RH, 10 day): 0.05%
Water (%) ([5]; 75% RH, 10 day): 2.53%
Appearance ([5]; 92.5% RH, 5 day): White
Enantiomers (%) ([5]; 92.5% RH, 5 day): 0.01%
Total impurities (%) ([5]; 92.5% RH, 5 day): 0.49%
Total of diastereoisomers (%) ([5]; 92.5% RH, 5 day): 0.04%
Water (%) ([5]; 92.5% RH, 5 day): 2.72%
Appearance ([5]; 92.5% RH, 10 day): White
Enantiomers (%) ([5]; 92.5% RH, 10 day): 0.01%
Total impurities (%) ([5]; 92.5% RH, 10 day): 0.49%
Total of diastereoisomers (%) ([5]; 92.5% RH, 10 day): 0.05%
Water (%) ([5]; 92.5% RH, 10 day): 2.42%
Appearance ([6]; 0 day): White
Enantiomers (%) ([6]; 0 day): 0.01%
Total impurities (%) ([6]; 0 day): 0.38%
Total of diastereoisomers (%) ([6]; 0 day): 0.05%
Water (%) ([6]; 0 day): 3.10%
Appearance ([6]; Lighting, 5 day): White
Enantiomers (%) ([6]; Lighting, 5 day): 0.01%
Total impurities (%) ([6]; Lighting, 5 day): 0.56%
Total of diastereoisomers (%) ([6]; Lighting, 5 day): 0.05%
Water (%) ([6]; Lighting, 5 day): 2.72%
Appearance ([6]; Lighting, 10 day): White
Enantiomers (%) ([6]; Lighting, 10 day): 0.01%
Total impurities (%) ([6]; Lighting, 10 day): 0.63%
Total of diastereoisomers (%) ([6]; Lighting, 10 day): 0.05%
Water (%) ([6]; Lighting, 10 day): 2.47%
Appearance ([6]; shading, 5 day): White
Enantiomers (%) ([6]; shading, 5 day): 0.01%
Total impurities (%) ([6]; shading, 5 day): 0.49%
Total of diastereoisomers (%) ([6]; shading, 5 day): 0.05%
Water (%) ([6]; shading, 5 day): 2.73%
Appearance ([6]; shading, 10 day): White
Enantiomers (%) ([6]; shading, 10 day): 0.01%
Total impurities (%) ([6]; shading, 10 day): 0.47%
Total of diastereoisomers (%) ([6]; shading, 10 day): 0.05%
Water (%) ([6]; shading, 10 day): 2.55%
Compound: N#Cc1ccnc(N2[C@H](C(=O)N(c3cccc(F)c3)[C@H](C(=O)NC3CC(F)(F)C3)c3ccccc3Cl)CCS2(=O)=O)c1 [crystal of the monohydrate of formula II]
